Reference: ChEMBL document CHEMBL5226321, “Ivermectin: A Promising Therapeutic for Fighting Malaria. Current Status and Perspective” (J Med Chem, 2021)
Converted amounts (≈) assume the structure as drawn. Each block holds one compound with its values, some of them ahead of it.

Legend:
[1] = tested on: Anopheles gambiae; test: Insecticidal in Anopheles gambiae G3 assessed as lethal concentration fed with compound treated human blood at 150 microg/kg administered once; type: functional; settings: dose 150 µg/kg
[2] = tested on: Anopheles stephensi; test: Insecticidal in Anopheles stephensi larvae measured after 48 hrs; type: functional
[3] = tested on: Culex pipiens; test: Insecticidal in Culex pipiens larvae measured after 48 hrs; type: functional
[4] = tested on: Aedes aegypti; test: Insecticidal in Aedes aegypti larvae measured after 48 hrs; type: functional
[5] = tested on: Anopheles gambiae; test: Insecticidal in Anopheles gambiae G3 assessed as sublethal dose re-blood fed on human arm; type: functional
[6] = tested on: Huh-7; test: Antimalarial activity against liver stage Plasmodium berghei infected in human Huh-7 cells assessed as inhibition by bioluminescence assay; type: functional, cell-based
[7] = Antimalarial activity against Plasmodium cynomolgi infected in rhesus macaque hepatocytes assessed as inhibition of liver-stage schizonts by Giemsa staining based microscopic analysis; type: functional, cell-based, Macaca mulatta; settings: hepatocyte
[8] = tested on: Plasmodium vivax; test: Antimalarial activity against Plasmodium vivax assessed as inhibition of sporogony in Anopheles sp. mosquito fed with blood containing plasma isolated from compound treated parasite-infected human observed after 7 days; type: functional, organism-based
[9] = tested on: Plasmodium falciparum; test: Antimalarial activity against asexual blood stage chloroquine-resistant Plasmodium falciparum Dd2 assessed as parasite growth inhibition by SYBR Green staining based fluorescence analysis; type: functional, organism-based
[10] = tested on: Plasmodium falciparum; test: Antimalarial activity against asexual blood stage Plasmodium falciparum assessed as parasite growth inhibition incubated for 72 hrs by HRP2 - ELISA; type: functional, organism-based
[11] = tested on: Plasmodium falciparum; test: Antimalarial activity against asexual blood stage chloroquine-sensitive Plasmodium falciparum 3d7 assessed as parasite growth inhibition by SYBR Green staining based fluorescence analysis; type: functional, organism-based
[12] = tested on: Plasmodium falciparum; test: Antiplasmodial activity against asexual blood stage Plasmodium falciparum 3d7 assessed as parasite growth inhibition incubated for 48 hrs by bioluminescence assay; type: functional, organism-based
[13] = tested on: Plasmodium falciparum; test: Antimalarial activity against Plasmodium falciparum late stage IV-V gametocytes assessed as parasite growth inhibition incubated for 48 hrs by BacTiterGlo assay; type: functional, organism-based
[14] = tested on: Plasmodium falciparum; test: Antimalarial activity against asexual blood stage mefloquine-resistant Plasmodium falciparum Dd2 assessed as parasite growth inhibition by SYBR Green staining based fluorescence analysis; type: functional, organism-based
[15] = tested on: Huh-7; test: Antiplasmodial activity against liver stage Plasmodium berghei infected in human Huh-7 cells assessed as inhibition of parasite infection incubated for 48 hrs by bioluminescence assay; type: functional, cell-based

Compound: C=C(C)[C@H]1C(=O)c2c3c(cc4c5c(n1c24)C[C@@]1(C)C5CC[C@H]2[C@](C)(/C=C/C=C(\C)C(=O)NC(C)(C)C)[C@@H](O)CC[C@@]21C)C1=CC(C)(C)OC(C)(C)C1[C@@H]3O (some centres not stated)
LC50 [1]: 0.76 µg/mL (≈ 1.03 µM)

Compound: CO[C@H]1C[C@H](O[C@H]2[C@H](C)O[C@@H](O[C@@H]3/C(C)=C/C[C@@H]4C[C@@H](C[C@]5(C=C[C@H](C)[C@@H](C(C)C)O5)O4)OC(=O)[C@@H]4C=C(C)[C@@H](O)[C@H]5OC/C(=C\C=C\[C@@H]3C)[C@]54O)C[C@@H]2OC)O[C@@H](C)[C@@H]1O [ABAMECTIN COMPONENT B1B]
LC50 [2]: 2.9 ppb | LC50 [3]: 2.42 ppb | LC50 [4]: 10.4 ppb

Compound: CCN(Cc1ccc(Cl)nc1)/C(=C/[N+](=O)[O-])NC [NITENPYRAM]
LC25 [5]: 0.07865 µg/mL (≈ 0.291 µM) | LC50 [1]: 0.111 µg/mL (≈ 0.41 µM)

IC50 ([6]; Homo sapiens, Huh-7): 2400 nM
Compound: COc1cc(NC(C)CCCN)c2ncccc2c1 (configuration not stated) [PRIMAQUINE]

Compound: IVERMECTIN
IC50 [7]: 10400 nM | IC50 [8]: 0.00568 µg/mL | IC50 [9]: 2850 nM | IC50 [10]: 100 nM | IC50 ([6]; huh-7): 2100 nM | IC50 [11]: 1560 nM | IC50 [12]: 1560 nM | IC50 [13]: 500 nM | IC50 [14]: 1920 nM | IC50 [15]: 2100 nM
